Patent publication US6518262B1, “22R-hydroxycholesta-8, 14-diene derivatives for the inhibition of meiosis” (Akzo Nobel N.V., priority 1999, dated 2003)

Test system: cumulus enclosed oocytes (CEO)
Test: Oocyte assay, agonistic testing, cumulus enclosed oocytes (CEO assay)
Format: cell-based, mice (B6D2-F1, strain C57BL×DBA)
Details: compound 5 μM, hypoxanthine medium, 22 hours culture, control value in brackets
Excerpt: Oocytes arrested in meiosis contain diffused chromosomes which are surrounded by an intact nuclear envelope known as the germinal vesicle (GV). Upon reinitiation of meiosis by the midcycle gonadotropin surge, the chromosomes recondense and the GV breaks down (GVBD). In vivo, the oocyte is exposed to hypoxanthine (HX), which maintains the oocyte arrested in the meiotic prophase. This meiotic arrest can be mimicked in vitro by addition of hypoxanthine to the culture medium. The agonistic activity of meiosis activating substances is measured as the ability to overcome the hypoxanthine maintained meiotic arrest in denuded oocytes (DO) or cumulus enclosed oocytes (CEO), i.e. as the ability to induce meiotic resumption in vitro.
Ovaries are obtained from immature female mice (B6D2-F1, strain C57BL×DBA). At the age of 19, 20 or 21 days the mice are injected subcutaneously with a single dose of 20 IU follicle stimulating hormone (Humegon, Organon, The Netherlands) in saline.
Forty-eight hours after follicle stimulating hormone injection mice are killed by cervical dislocation. The ovaries are removed, freed of extraneous tissue and placed in a multidish containing 0.5 ml preparation medium at 37° C. L-15 Leibovitz medium (Gibco, pH 7.3±0.1) supplemented with bovine serum albumin (3 mg·ml^−1), L-glutamine (0.23 mM), sodium pyruvate (2 mM) and hypoxanthine (4 mM) is used as preparation medium. […]
The oocyte assay is performed in 3 blocks, each block represents the ovaries of one mouse (randomized block design). […] At t=0 the number of oocytes with intact germinal vesicles (GV) or germinal vesicle break-down (GVBD) is counted under an inverted microscope with differential interference contrast equipment. […] At the end of the culture period the number of oocytes with GV or GVBD per group is counted. For statistical analysis the percentage germinal vesicle breakdown is calculated for each group in one block. These percentages are subjected to arcsin transformation, and differences between control and test compounds are analyzed by an ANOVA test for a randomized block design. […]

CC(C)=CC[C@@H](O)[C@@H](C)[C@H]1CC=C2C3=C(CC[C@@]21C)[C@@]1(C)CC[C@H](O)C(C)(C)[C@@H]1CC3 [Example 2, (3β,5α,20S,22R)-4,4-Dimethylcholesta-8,14,24-triene-3,22-diol]
% GVBD CEO assay exp.: 2(2) %
